In US10842795B1, “Chemosensitization of resistant Pseudomonas aeruginosa by synthetically related compounds” (King Abdulaziz University, priority 2020, dated 2020):
“Also recorded” adds a separate entry of the source. Blank lines part the entries; values can stand above or below the compound they belong to.

Experiments:
[1] = test system: Pseudomona aeruginosa ATCC 27853; assay: Cup diffusion (agar plate diffusion) assay of ciprofloxacin chemosensitization; assay type: cell-based, Pseudomonas aeruginosa; conditions: 200 μM compound with CPX, MDR-Pa, in words
Experimental: ^1H NMR (400 MHz, DMSO-d6) δ 9.88 (s, 1H), 7.66 (dd, J=1.51, 7.78 Hz, 2H), 7.53-7.62 (m, 3H), 7.43-7.51 (m, 3H), 7.37-7.43 (m, 2H), 7.29-7.37 (m, 1H), 7.07-7.12 (m, 2H), 6.95-7.02 (m, 1H), 6.87 (d, J=15.81 Hz, 1H), 4.19 (q, J=7.11 Hz, 2H), 1.25 (t, J=7.15 Hz, 3H). Biological Screening Efflux Pump Inhibition (EPI) Screening Methodology: Bacterial isolate. Pseudomona aeruginosa ATCC 27853 stored at −70° C. in Trypticase soy broth supplemented with 10% glycerol was recovered for testing. Tests performed. Cup diffusion assay was performed to assess interaction between Ciprofloxacin CPX and 24 compounds. CPX minimum inhibitory concentrations (MICs) were determined alone and in the presence of each compound at concentrations ranging from 2000 to 62.5 μg/mL against P. aeruginosa. A fixed concentration of 200 μM of each compound was selected for testing.
Briefly, Petri dishes (90 mm) were filled with 25 mL Muller-Hinton agar containing 1 mL bacterial culture (1×10^6 CFU/mL) and 200 μM of each compound. The strains were inoculated separately. Six holes (5 mm in diameter) were made in the seeded agar plates. The holes were then filled with 20 μL of each concentration of CPX, plate with CPX only was served as control. Dishes were then incubated for 24 h at 37° C. The MIC was recorded as the lowest concentration that inhibits the growth of the bacterial strains. […] All assays were performed in triplicate and MIC's values are given in μg/mL. The inhibition zone was measured using a caliper.
The agar plate diffusion test (Zou, He et al. 2019) was utilized to qualitatively evaluate the ciprofloxacin killing effect on MDR-Pa in absence (control) and in presence of our designed efflux pump inhibitors.

MDR-Pa = assay: Pseudomonas aeruginosa liquid killing assay on C. elegans (chemosensitization of MDR-Pa); assay type: in vivo; conditions: for Survival x/50 in presence of CAB compounds at 25 μM: 25 μM CAB compound + 100 μg/mL CPX; for Survival x/50 in presence of CAB compounds at 50 μM: 50 μM CAB compound + 100 μg/mL CPX; for Survival x/50 in presence of CAB compounds at 100 μM: 100 μM CAB compound + 100 μg/mL CPX; for Survival x/50 in presence of CAB compounds at 200 μM: 200 μM CAB compound + 100 μg/mL CPX; for Activity in C. elegans model (survival and motility), in words: MDR-Pa infected C. elegans with CPX; for C. elegans + 100 μg/mL CPX) MIC: MDR-Pa infected C. elegans, in presence of 100 μg/mL CPX
Experimental: In vivo EPI activity of compounds that illustrated an MIC against P. aeruginosa. ATCC 27853 were tested on C. elegans using the liquid killing assay (LKA). Briefly, eggs of C. elegans were hatched on lawns of E. coli OP50 on nematode growth medium agar. Worms were grown to L4 stage by incubation at 25° C. for 48 h. Worms were washed off the plate with M9 buffer, deposited onto lawns of E. coli OP50 or P. aeruginosa. ATCC 27853 and the plates were incubated at 25° C. for 16 h. OP50-fed or P. aeruginosa-infected worms were washed from the plate with M9 buffer, allowed to settle to bottom of Eppendorf tubes, and rinsed with M9 buffer. The M9 was then removed and worms were resuspended in 5 mL liquid killing medium (80% M9 and 20% nematode growth medium (NGMII)) and 95 μL aliquots with approximately 50 worms were added to the wells of 96-microtiter plates with or without test compounds at the indicated concentration ranges (starting from 200 μM) in presence of sub-MIC concentration of CPX (100 μg/mL). As a control, worms treated without test compound contained an equivalent amount of DMSO in the assay medium. Plates were scored for live worms at the time of inoculation and incubated at 37° C. for 24 h. Using a dissecting microscope, worms were considered dead if they appeared straight, and alive if they appeared S-shaped and were moving.
C. elegans is a very efficient whole organism test. The worm develops several reliable disease pathways and can be recruited to measure therapeutic activities of compounds. The technique bears several advantages such as low cost, there is no need for special growth or assay conditions (c.f. animal house and expensive caring for in vivo test on mammalians such as rats) (Kaletta and Hengartner 2006) and there are no ethical issues with consuming animals. In our particular assay, C. elegans can be infected and killed by Pa, and therefore, can be used for identifying compounds that help to protect the worm from pathogenic bacteria (Ewbank and Zugasti 2011).
We used the assay to measure the CAB N-alkyl derivatives CAB-30, CAB-35, CAB-36, CAB-37, CAB-38, CAB-40, CAB-41, CAB-42 and CAB-43 ability to protect C. elegans against MDR-Pa.

Pgp [2] = molecular target: T1, Pgp (Homo sapiens, UniProt P08183); conditions: reported earlier (El-Araby, Omar et al. 2017); cited from earlier work
T1 construct: highly resistant cells K562 Adr500 which keep R123 outside the cancer cells; endogenous in cells; host or cells: K562 Adr500 (adriamycin-resistant human leukemia K562 cells)
T1 sequence (P08183 whole entry): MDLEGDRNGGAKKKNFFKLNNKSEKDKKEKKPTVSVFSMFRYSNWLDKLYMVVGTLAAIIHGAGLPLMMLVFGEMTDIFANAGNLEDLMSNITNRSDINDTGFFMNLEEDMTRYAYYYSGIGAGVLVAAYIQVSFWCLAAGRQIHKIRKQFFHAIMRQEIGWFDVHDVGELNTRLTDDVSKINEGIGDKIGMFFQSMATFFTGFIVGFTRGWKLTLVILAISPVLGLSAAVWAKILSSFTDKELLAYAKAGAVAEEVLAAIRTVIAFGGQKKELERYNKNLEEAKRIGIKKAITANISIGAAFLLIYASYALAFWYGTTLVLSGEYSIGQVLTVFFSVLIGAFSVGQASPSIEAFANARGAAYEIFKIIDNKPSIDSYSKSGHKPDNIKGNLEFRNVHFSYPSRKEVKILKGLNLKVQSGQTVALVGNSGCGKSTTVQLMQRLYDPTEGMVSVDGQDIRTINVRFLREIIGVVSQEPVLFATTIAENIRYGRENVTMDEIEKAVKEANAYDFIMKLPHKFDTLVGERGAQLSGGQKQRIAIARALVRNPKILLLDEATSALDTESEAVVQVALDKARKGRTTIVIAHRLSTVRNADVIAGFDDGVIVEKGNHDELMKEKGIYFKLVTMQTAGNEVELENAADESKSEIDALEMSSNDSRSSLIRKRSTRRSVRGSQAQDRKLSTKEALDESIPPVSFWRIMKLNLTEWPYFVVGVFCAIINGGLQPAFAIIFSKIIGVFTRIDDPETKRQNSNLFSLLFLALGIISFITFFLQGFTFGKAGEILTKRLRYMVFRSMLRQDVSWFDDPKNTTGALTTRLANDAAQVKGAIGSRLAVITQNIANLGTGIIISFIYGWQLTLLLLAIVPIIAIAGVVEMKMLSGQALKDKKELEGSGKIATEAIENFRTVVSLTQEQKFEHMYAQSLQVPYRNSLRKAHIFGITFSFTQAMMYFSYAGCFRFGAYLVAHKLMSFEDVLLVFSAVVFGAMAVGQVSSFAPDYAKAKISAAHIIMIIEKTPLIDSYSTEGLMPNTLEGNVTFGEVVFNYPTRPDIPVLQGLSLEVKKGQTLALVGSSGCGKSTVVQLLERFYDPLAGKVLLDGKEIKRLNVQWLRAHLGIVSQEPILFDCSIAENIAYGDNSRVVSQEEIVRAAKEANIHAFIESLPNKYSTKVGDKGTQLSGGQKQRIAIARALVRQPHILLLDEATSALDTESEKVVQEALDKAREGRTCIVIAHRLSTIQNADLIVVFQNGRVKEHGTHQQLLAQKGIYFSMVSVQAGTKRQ

[3] = Solubility (qualitative statement); assay type: physicochemical; conditions: in words
Pgp [4] = molecular target: T1, Pgp; assay: Rhodamine123 (R123) efflux assay in K562 Adr500 cells; assay type: cell-based; conditions: in words
Experimental: The cells (10^5) were counted and suspended in 1 ml RPMI medium. The appropriate CAB derivative (0.5 μM) was added to the medium alongside 1, 5 or 10 μM WYE-354, or 100 μM Verapamil as control inhibitors and incubated for 60 min at 37° C. Upon dye uptake, the cells were pelleted by centrifugation at 250×g for 5 min at 4° C. in a cold centrifuge. The harvested cells were washed twice with 1× ice-cold PBS and resuspended in 1 ml RPMI with the inhibitors alone, and reincubated for an additional 60 min at 37° C. to allow the efflux of R123. The cells were subsequently washed twice with ice-cold PBS and analyzed immediately on a BD FACSAria III. A minimum of 5,000 events were recorded for analysis.
We studied the selectivity of CAB-38 by testing its Pgp inhibition (human efflux protein) activities. This assay was performed by measuring the retention of Rhodamine123 (R123) dye (substrate of Pgp) in human leukemia cell lines K562. The negative control of experiment is composed of highly resistant cells K562 Adr500 which keep R123 outside the cancer cells (FIG. 3A). The positive control is performed by repeating the same experiment after incubation of cells with everolimus sub-cytotoxic dose, a powerful Pgp inhibitor (FIG. 3B). The test compound was incubated with K562 Adr500 and then added R123 dye. […]

SMILES: CCOC(=O)/C(=C/C=C/c1ccccc1)NC(=O)C=Cc1ccccc1 [CAB-21, Ethyl (2Z,4E)-2-Cinnamamido-5-Phenylpenta-2,4-Dienoate]
- Enhancement of CPX antibiotic activity (chemosensitization, inhibition zone) [1]: weak activities

SMILES: CCCNC(=O)/C(=C/C=C/c1ccccc1)NC(=O)/C=C/c1ccccc1 [CAB-30]
- Enhancement of CPX antibiotic activity (chemosensitization, inhibition zone) [1]: highest chemosensitization; also recorded: most potent
- Survival x/50 in presence of CAB compounds at 1.562 μM (MDR-Pa; 1.562 μM CAB compound + 100 μg/mL CPX): 20 x/50
- Survival x/50 in presence of CAB compounds at 3.125 μM (MDR-Pa; 3.125 μM CAB compound + 100 μg/mL CPX): 20 x/50
- Survival x/50 in presence of CAB compounds at 6.25 μM (MDR-Pa; 6.25 μM CAB compound + 100 μg/mL CPX): 20 x/50
- Survival x/50 in presence of CAB compounds at 12.5 μM (MDR-Pa; 12.5 μM CAB compound + 100 μg/mL CPX): 20 x/50
- Survival x/50 in presence of CAB compounds at 25 μM (MDR-Pa): 40 x/50
- Survival x/50 in presence of CAB compounds at 50 μM (MDR-Pa): 40 x/50
- Survival x/50 in presence of CAB compounds at 100 μM (MDR-Pa): 40 x/50
- Survival x/50 in presence of CAB compounds at 200 μM (MDR-Pa): 50 x/50
- Activity in C. elegans model (survival and motility), in words (MDR-Pa): highly potent
- C. elegans + 100 μg/mL CPX) MIC (MDR-Pa): 1.56 µM
- Pgp inhibition activities (Pgp [2]): undesired Pgp inhibition activities

SMILES: COc1ccc(NC(=O)/C(=C/C=C/c2ccccc2)NC(=O)C=Cc2ccccc2)cc1 [CAB-32, (2Z,4E)-2-cinnamamido-N-(4-methoxyphenyl)-5-phenylpenta-2,4-dienamide]
- Enhancement of CPX antibiotic activity (chemosensitization, inhibition zone) [1]: weak activities

SMILES: CNC(=O)/C(=C/C=C/c1ccccc1)NC(=O)C=Cc1ccccc1 [CAB-35, (2Z,4E)-2-cinnamamido-N-methyl-5-phenylpenta-2,4-dienamide]
- Survival x/50 in presence of CAB compounds at 200 μM (MDR-Pa): 15 x/50
- C. elegans + 100 μg/mL CPX) MIC (MDR-Pa): 200 µM

- Solubility [3]: poor solubility
SMILES: N#Cc1cccc(NC(=O)/C(=C/C=C/c2ccccc2)NC(=O)C=Cc2ccccc2)c1 [CAB-36, (2Z,4E)-2-cinnamamido-N-(3-cyanophenyl)-5-phenylpenta-2,4-dienamide]
- Enhancement of CPX antibiotic activity (chemosensitization, inhibition zone) [1]: moderate chemosensitization activities
- C. elegans + 100 μg/mL CPX) MIC (MDR-Pa): Died

SMILES: O=C(C=Cc1ccccc1)N/C(=C\C=C\c1ccccc1)C(=O)NCCO [CAB-37, (2Z,4E)-2-cinnamamido-N-(2-hydroxyethyl)-5-phenylpenta-2,4-dienamide]
- Activity in C. elegans model (survival and motility), in words (MDR-Pa): did not show any activity
- C. elegans + 100 μg/mL CPX) MIC (MDR-Pa): 50 µM

- Solubility [3]: improved solubility
SMILES: O=C(C=Cc1ccccc1)N/C(=C\C=C\c1ccccc1)C(=O)N1CCOCC1 [CAB-38, N-((2Z,4E)-1-morpholino-1-oxo-5-phenylpenta-2,4-dien-2-yl)cinnamamide]
- Survival x/50 in presence of CAB compounds at 25 μM (MDR-Pa): 3 x/50
- Survival x/50 in presence of CAB compounds at 50 μM (MDR-Pa): 5 x/50
- Survival x/50 in presence of CAB compounds at 100 μM (MDR-Pa): 10 x/50
- Survival x/50 in presence of CAB compounds at 200 μM (MDR-Pa): 40 x/50
- C. elegans + 100 μg/mL CPX) MIC (MDR-Pa): 25 µM
- Pgp inhibition (retention of R123 dye in cells) (Pgp [4]): poor inhibitor of Pgp; also recorded: no inhibition observed; also recorded: not retention of R123 dye

SMILES: COc1cccc(NC(=O)/C(=C/C=C/c2ccccc2)NC(=O)C=Cc2ccccc2)c1 [CAB-40, (2Z,4E)-2-cinnamamido-N-(3-methoxyphenyl)-5-phenylpenta-2,4-dienamide]
- Enhancement of CPX antibiotic activity (chemosensitization, inhibition zone) [1]: weak activities
- Survival x/50 in presence of CAB compounds at 200 μM (MDR-Pa): 25 x/50
- C. elegans + 100 μg/mL CPX) MIC (MDR-Pa): 200 µM

SMILES: O=C(C=Cc1ccccc1)N/C(=C\C=C\c1ccccc1)C(=O)N1CCCC1 [CAB-41, N-((2Z,4E)-1-oxo-5-phenyl-1-(pyrrolidin-1-yl)penta-2,4-dien-2-yl)cinnamamide]
- Survival x/50 in presence of CAB compounds at 50 μM (MDR-Pa): 5 x/50
- Survival x/50 in presence of CAB compounds at 100 μM (MDR-Pa): 7 x/50
- Survival x/50 in presence of CAB compounds at 200 μM (MDR-Pa): 25 x/50
- C. elegans + 100 μg/mL CPX) MIC (MDR-Pa): 50 µM

SMILES: CCCCNC(=O)/C(=C/C=C/c1ccccc1)NC(=O)C=Cc1ccccc1 [CAB-42, (2Z,4E)-N-butyl-2-cinnamamido-5-phenylpenta-2,4-dienamide]
- Survival x/50 in presence of CAB compounds at 100 μM (MDR-Pa): 5 x/50
- Survival x/50 in presence of CAB compounds at 200 μM (MDR-Pa): 45 x/50
- C. elegans + 100 μg/mL CPX) MIC (MDR-Pa): 100 µM

SMILES: CC(C)NC(=O)/C(=C/C=C/c1ccccc1)NC(=O)C=Cc1ccccc1 [CAB-43, (2Z,4E)-2-cinnamamido-N-isopropyl-5-phenylpenta-2,4-dienamide]
- C. elegans + 100 μg/mL CPX) MIC (MDR-Pa): Died

SMILES: O=C(O)c1cn(C2CC2)c2cc(N3CCNCC3)c(F)cc2c1=O [Control (Cipro Only), ciprofloxacin, reference compound]
- C. elegans + 100 μg/mL CPX) MIC (MDR-Pa): Died

- Pgp inhibition (retention of R123 dye in cells) (Pgp [4]): large increase of R123 dye
SMILES: CO[C@H]1C[C@@H]2CC[C@@H](C)[C@@](O)(O2)C(=O)C(=O)N2CCCC[C@H]2C(=O)O[C@H]([C@H](C)C[C@@H]2CC[C@@H](OCCO)[C@H](OC)C2)CC(=O)[C@H](C)/C=C(\C)[C@@H](O)[C@@H](OC)C(=O)[C@H](C)C[C@H](C)/C=C/C=C/C=C/1C [everolimus, reference compound]
